Laboratory results from ChEMBL document CHEMBL5143615, “Novel 2-aryl-4-aryloxyquinoline-based fungistatics for Mucor circinelloides. Biological evaluation of activity, QSAR and docking study” (Bioorg Med Chem Lett, 2022).
Active and inactive are the calls of the source. The calls are words filed in the database; no cut-off is given here.

What was measured:
Mucor circinelloides [1] = test: Antifungal activity against Mucor circinelloides R7B wild type strain assessed as reduction in spore germination at 100 ug/ml relative to control; format: functional; parameters: scale not given: the % may be the effect or the level left; conditions: dose 100 µg/ml
Mucor circinelloides [2] = test: Antifungal activity against Mucor circinelloides M5 strain assessed as reduction in spore germination at 100 ug/ml relative to control; format: functional; parameters: scale not given: the % may be the effect or the level left; conditions: dose 100 µg/ml
Mucor circinelloides [3] = test: Antifungal activity against Mucor circinelloides R7B wild type strain assessed as reduction in spore germination at 25 ug/ml relative to control; format: functional; parameters: scale not given: the % may be the effect or the level left; conditions: dose 25 µg/ml
Mucor circinelloides [4] = test: Antifungal activity against Mucor circinelloides M5 strain assessed as reduction in spore germination at 25 ug/ml relative to control; format: functional; parameters: scale not given: the % may be the effect or the level left; conditions: dose 25 µg/ml
Mucor circinelloides [5] = test: Antifungal activity against Mucor circinelloides R7B wild type strain assessed as reduction in spore germination at 50 ug/ml relative to control; format: functional; parameters: scale not given: the % may be the effect or the level left; conditions: dose 50 µg/ml
Mucor circinelloides [6] = test: Antifungal activity against Mucor circinelloides M5 strain assessed as reduction in spore germination at 50 ug/ml relative to control; format: functional; parameters: scale not given: the % may be the effect or the level left; conditions: dose 50 µg/ml
Mucor circinelloides [7] = test: Antifungal activity against Mucor circinelloides R7B wild type strain assessed as reduction in spore germination at 150 ug/ml relative to control; format: functional; parameters: scale not given: the % may be the effect or the level left; conditions: dose 150 µg/ml
Mucor circinelloides [8] = test: Antifungal activity against Mucor circinelloides M5 strain assessed as reduction in spore germination at 150 ug/ml relative to control; format: functional; parameters: scale not given: the % may be the effect or the level left; conditions: dose 150 µg/ml
[9] = Cytotoxicity against mouse NIH/3T3 cells assessed as reduction in cell viability at 25 ug/ml incubated for 48 hrs by MTT assay (reference value: 93.8 +/- 4.9 %); format: toxicity, cell-based, NIH3T3; conditions: at 25 µg/mL, read-out: Activity
[10] = Cytotoxicity against mouse NIH/3T3 cells assessed as reduction in cell viability at 50 ug/ml incubated for 48 hrs by MTT assay (reference value: 93.8 +/- 4.9 %); format: toxicity, cell-based, NIH3T3; conditions: at 50 µg/mL, read-out: Activity
[11] = Cytotoxicity against mouse NIH/3T3 cells assessed as reduction in cell viability at 100 ug/ml incubated for 48 hrs by MTT assay (reference value: 93.8 +/- 4.9 %); format: toxicity, cell-based, NIH3T3; conditions: at 100 µg/mL, read-out: Activity
[12] = Cytotoxicity against mouse NIH/3T3 cells assessed as reduction in cell viability at 150 ug/ml incubated for 48 hrs by MTT assay (reference value: 93.8 +/- 4.9 %); format: toxicity, cell-based, NIH3T3; conditions: at 150 µg/mL, read-out: Activity
[13] = Cytotoxicity against mouse NIH/3T3 cells assessed as reduction in cell viability at 200 ug/ml incubated for 48 hrs by MTT assay (reference value: 93.8 +/- 4.9 %); format: toxicity, cell-based, NIH3T3; conditions: at 200 µg/mL, read-out: Activity
[14] = target: T1, Lanosterol 14-alpha demethylase (Mus musculus, UniProt Q8K0C4); test: Inhibition of CYP51 in mouse NIH/3T3 cells assessed as specific enzymatic activity at 25 ug/ml incubated for 48 hrs by ELISA analysis; format: ADME, cell-based; conditions: nih/3t3, 48 h, dose 25 µg/ml
T1 sequence (Q8K0C4 whole entry): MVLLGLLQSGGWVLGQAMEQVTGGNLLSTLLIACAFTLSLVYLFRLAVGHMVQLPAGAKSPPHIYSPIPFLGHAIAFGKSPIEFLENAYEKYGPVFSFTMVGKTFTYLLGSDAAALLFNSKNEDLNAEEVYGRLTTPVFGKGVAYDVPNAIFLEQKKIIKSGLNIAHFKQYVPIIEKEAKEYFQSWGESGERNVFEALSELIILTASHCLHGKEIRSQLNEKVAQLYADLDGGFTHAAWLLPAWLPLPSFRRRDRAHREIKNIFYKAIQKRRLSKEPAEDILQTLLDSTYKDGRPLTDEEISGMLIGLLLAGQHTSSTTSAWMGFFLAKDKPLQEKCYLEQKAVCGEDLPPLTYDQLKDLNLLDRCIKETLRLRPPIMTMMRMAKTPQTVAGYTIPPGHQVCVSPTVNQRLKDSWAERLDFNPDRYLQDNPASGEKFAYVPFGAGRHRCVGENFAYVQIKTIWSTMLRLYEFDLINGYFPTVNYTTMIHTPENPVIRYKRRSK

[15] = target: T1, Lanosterol 14-alpha demethylase; test: Inhibition of CYP51 in mouse NIH/3T3 cells assessed as specific enzymatic activity at 50 ug/ml incubated for 48 hrs by ELISA analysis; format: ADME, cell-based; conditions: nih/3t3, 48 h, dose 50 µg/ml
[16] = target: T1, Lanosterol 14-alpha demethylase; test: Inhibition of CYP51 in mouse NIH/3T3 cells assessed as specific enzymatic activity at 100 ug/ml incubated for 48 hrs by ELISA analysis; format: ADME, cell-based; conditions: nih/3t3, 48 h, dose 100 µg/ml
[17] = target: T1, Lanosterol 14-alpha demethylase; test: Inhibition of CYP51 in mouse NIH/3T3 cells assessed as specific enzymatic activity at 150 ug/ml incubated for 48 hrs by ELISA analysis; format: ADME, cell-based; conditions: nih/3t3, 48 h, dose 150 µg/ml
[18] = target: T1, Lanosterol 14-alpha demethylase; test: Inhibition of CYP51 in mouse NIH/3T3 cells assessed as specific enzymatic activity at 200 ug/ml incubated for 48 hrs by ELISA analysis; format: ADME, cell-based; conditions: nih/3t3, 48 h, dose 200 µg/ml
Mucor circinelloides [19] = test: Antifungal activity against Mucor circinelloides R7B wild type strain assessed as few mycelia with several spores at 50 ug/ml by microscopic analysis; format: functional, organism-based; conditions: dose 50.0 µg/ml
Mucor circinelloides [20] = test: Antifungal activity against Mucor circinelloides M5 strain assessed as few mycelia with several spores at 50 ug/ml by microscopic analysis; format: functional, organism-based; conditions: dose 50.0 µg/ml
Mucor circinelloides [21] = test: Antifungal activity against Mucor circinelloides R7B wild type strain assessed as non-germinated spores and undifferentiated hyphae at 50 ug/ml by microscopic analysis; format: functional, organism-based; conditions: dose 50.0 µg/ml
Mucor circinelloides [22] = test: Antifungal activity against Mucor circinelloides M5 strain assessed as non-germinated spores and undifferentiated hyphae at 50 ug/ml by microscopic analysis; format: functional, organism-based; conditions: dose 50.0 µg/ml
Mucor circinelloides [23] = test: Antifungal activity against Mucor circinelloides R7B wild type strain assessed as complete absence of mycelia at 100 to 150 ug/ml by microscopic analysis; format: functional, organism-based; conditions: dose 100-150 µg/ml
Mucor circinelloides [24] = test: Antifungal activity against Mucor circinelloides M5 strain assessed as complete absence of mycelia at 100 to 150 ug/ml by microscopic analysis; format: functional, organism-based; conditions: dose 100-150 µg/ml
Mucor circinelloides [25] = test: Antifungal activity against Mucor circinelloides R7B wild type strain assessed as non-germinated spores at 100 to 150 ug/ml by microscopic analysis; format: functional, organism-based; conditions: dose 100-150 µg/ml
Mucor circinelloides [26] = test: Antifungal activity against Mucor circinelloides M5 strain assessed as non-germinated spores at 100 to 150 ug/ml by microscopic analysis; format: functional, organism-based; conditions: dose 100-150 µg/ml

Compound: O=[N+]([O-])c1ccc(Oc2cc(-c3cc(F)cc(F)c3)nc3ccccc23)cc1
- Activity (Mucor circinelloides [1]): 7.9%
- Activity (Mucor circinelloides [2]): 11.2%
- Activity (Mucor circinelloides [3]): 83.9%
- Activity (Mucor circinelloides [4]): 82.5%
- Activity (Mucor circinelloides [5]): 28.3%
- Activity (Mucor circinelloides [6]): 37.3%
- Activity (Mucor circinelloides [7]): 5.8%
- Activity (Mucor circinelloides [8]): 7.9%
- viability at 48 h, 25 ug/ml [9]: 94.5%
- viability at 48 h, 50 ug/ml [10]: 91.8%
- viability at 48 h, 100 ug/ml [11]: 84%
- viability at 48 h, 150 ug/ml [12]: 18.3%
- viability at 48 h, 200 ug/ml [13]: 15.5%
- Activity [14]: 16.7 U/mg
- Activity [15]: 11.21 U/mg
- Activity [16]: 6.02 U/mg
- Activity [17]: 2.56 U/mg
- Activity [18]: 0.4 U/mg
- Activity (Mucor circinelloides [19]): Active
- Activity (Mucor circinelloides [20]): Active
- Activity (Mucor circinelloides [21]): Active
- Activity (Mucor circinelloides [22]): Active
- Activity (Mucor circinelloides [23]): Active
- Activity (Mucor circinelloides [24]): Active
- Activity (Mucor circinelloides [25]): Active
- Activity (Mucor circinelloides [26]): Active
